Here are results for 18 molecules from ChEMBL document CHEMBL3112526, “20S proteasome as novel biological target for organochalcogenanes” (Eur J Med Chem, 2014).

Activity calls are given as the source filed them. The rule behind the calls is not given here.

One series is filed under the species Equus caballus. In words: Inhibition of horse erythrocytes caspase like activity of beta1-20S proteasome using z-LLE-AMC as substrate at 100 uM measured for 60 mins by fluorescence assay.
Details: not given
On to `CCCC[Te](Br)(Br)c1ccccc1[C@H](C)OC`, for which the inhibition entry is “inactive”.

Consider `CCCC[Te](Br)(Br)c1ccccc1COC`, for which the inhibition entry is “inactive”.

As for `CCCC[Se]1(Cl)c2ccccc2[C@@H](C)[O+]1C` (stereo partly drawn), the inhibition result is “inactive”.

Consider `CCCC[Se]1(Cl)c2ccccc2[C@H](C)[O+]1C` (stereo partly drawn), for which the inhibition entry is “inactive”.

Turning to `CCCC[Se]1(Br)c2ccccc2[C@H](C)[O+]1C` (stereo partly drawn), the inhibition entry was “inactive”.

For `CCCC[Te](Br)(Br)c1ccccc1[C@@H](C)OC`, the inhibition result is “inactive”.

For `CCCC[Te](Cl)(Cl)c1ccccc1[C@H](C)OC`, the inhibition entry is “inactive”.

Consider `CCCC[Se]1(Cl)c2ccccc2C[O+]1C.[Cl-]` (stereo not drawn), for which the inhibition result is “inactive”.

Turning to `CCCC[Se]1(Br)c2ccccc2[C@@H](C)[O+]1C` (stereo partly drawn), the inhibition entry is “inactive”.

As to `CCCC[Te](Cl)(Cl)c1ccccc1[C@@H](C)OC`, the inhibition entry was “inactive”.

On to `CCCC[Se]1(Br)c2ccccc2C[O+]1C.[Br-]` (stereo not drawn), for which the inhibition result was “inactive”.

For `CCCC[Te](Cl)(Cl)c1ccccc1COC`, the inhibition entry is “inactive”.

For a further series, the species on record is Equus caballus. Briefly: Inhibition of horse erythrocytes chymotrypsin like activity of beta5-20S proteasome using suc-LLVY-AMC as substrate at 100 uM measured for 60 mins by fluorescence assay.
Details: not given
As to `CCCC[Te](Br)(Br)c1ccccc1[C@H](C)OC`, the inhibition entry is “inactive”.

In the case of `CCCC[Te](Br)(Br)c1ccccc1COC`, the inhibition entry was “inactive”.

For `CCCC[Se]1(Cl)c2ccccc2[C@@H](C)[O+]1C` (stereo partly drawn), the inhibition entry is “inactive”.

With `CCCC[Se]1(Cl)c2ccccc2[C@H](C)[O+]1C` (stereo partly drawn), the inhibition result is “inactive”.

For `CCCC[Se]1(Br)c2ccccc2[C@H](C)[O+]1C` (stereo partly drawn), the inhibition entry is “inactive”.

With `CCCC[Te](Br)(Br)c1ccccc1[C@@H](C)OC`, the inhibition result is “inactive”.

As to `CCCC[Te](Cl)(Cl)c1ccccc1[C@H](C)OC`, the inhibition result is “inactive”.

Regarding `CCCC[Se]1(Cl)c2ccccc2C[O+]1C.[Cl-]` (stereo not drawn), the inhibition entry is “inactive”.

As to `CCCC[Se]1(Br)c2ccccc2[C@@H](C)[O+]1C` (stereo partly drawn), the inhibition entry is “inactive”.

Consider `CCCC[Te](Cl)(Cl)c1ccccc1[C@@H](C)OC`, for which the inhibition result was “inactive”.

For the molecule `CCCC[Se]1(Br)c2ccccc2C[O+]1C.[Br-]` (stereo not drawn), the inhibition entry is “inactive”.

Regarding `CCCC[Te](Cl)(Cl)c1ccccc1COC`, the inhibition entry was “inactive”.

For another series, the target named is Proteasome subunit beta type-2 (Mus musculus) (UniProt Q9R1P3). Briefly: Inhibition of trypsin like activity of beta2-20S proteasome in mouse NIH-3T3 cells at 2 times IC50. As to conditions: NIH3T3. Type of series: cell-based.
Sequence of Proteasome subunit beta type-2 (Mus musculus) (Q9R1P3 whole entry): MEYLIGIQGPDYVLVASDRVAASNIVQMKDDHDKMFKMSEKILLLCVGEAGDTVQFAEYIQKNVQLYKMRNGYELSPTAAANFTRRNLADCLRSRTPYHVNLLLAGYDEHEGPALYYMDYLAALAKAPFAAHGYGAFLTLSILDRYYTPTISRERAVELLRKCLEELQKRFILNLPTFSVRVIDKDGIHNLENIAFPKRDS
With `CCCC[Te](Br)(Br)c1ccccc1COC`, the inhibition entry is “inactive”.

As for `CCCC[Se]1(Cl)c2ccccc2C[O+]1C.[Cl-]` (stereo not drawn), the inhibition result was “Active”.

Regarding `CCCC[Se]1(Br)c2ccccc2C[O+]1C.[Br-]` (stereo not drawn), the inhibition entry was “Active”.

In the case of `CCCC[Te](Cl)(Cl)c1ccccc1COC`, the inhibition result is “inactive”.

Tested on in another series: not listed separately
In words: Chemical stability of the compound under aqueous condition assessed as drug transformation. Type of series: physicochemical. As to conditions: buffer.
With `CCCC[Se]1(Cl)c2ccccc2C[O+]1C.[Cl-]` (stereo not drawn), the Stability result is given as “Unstable”.

Regarding `CCCC[Se]1(Br)c2ccccc2C[O+]1C.[Br-]` (stereo not drawn), the Stability result is reported as “Unstable”.

Tested on in another series: not listed separately
In words: Cytotoxicity against mouse NIH/3T3 cells assessed as cell viability at 20 umol/L after 2 hrs by MTT assay. As to conditions: read-out: Activity. It counts as cell-based, NIH3T3.
As for `CCCC[Se]1(Br)c2ccccc2C[O+]1C.[Br-]` (stereo not drawn), the viability at 2 h, 20 µM turned out to be 75%.

The next series has as its system NIH3T3. In words: Cytotoxicity against mouse NIH/3T3 cells assessed as cell viability at 10 to 100 umol/L after 2 hrs by MTT assay. As to conditions: nih3t3, 2 h. Type of series: cell-based.
Regarding `CCCC[Te](Cl)(Cl)c1ccccc1COC`, the Activity entry is “Non-toxic”.

Tested on in a further series: not listed separately
In words: Chemical stability of the compound under aqueous condition. The conditions noted are these: buffer. It counts as physicochemical.
As for `CCCC[Te](Br)(Br)c1ccccc1COC`, the Stability entry is reported as “Stable”.

Regarding `CCCC[Te](Cl)(Cl)c1ccccc1COC`, the Stability result is “Stable”.

Tested on in another series: not listed separately
Briefly: Cytotoxicity against mouse NIH/3T3 cells assessed as cell viability at 0.5 to 10 umol/L after 2 hrs by MTT assay. Type of series: cell-based, NIH3T3. The conditions noted are these: read-out: Activity.
Turning to `CCCC[Te](Cl)(Cl)c1ccccc1COC`, the viability at 2 h is 60%.

Tested on in a further series: not listed separately
In words: Cytotoxicity against mouse NIH/3T3 cells assessed as cell viability at 40 umol/L after 2 hrs by MTT assay. Type of series: cell-based, NIH3T3. The conditions noted are these: read-out: Activity.
Take `CCCC[Se]1(Cl)c2ccccc2C[O+]1C.[Cl-]` (stereo not drawn): the viability at 2 h, 40 µM was determined as 40%.

A further series concerns Saccharomyces cerevisiae. In words: Inhibition of yeast 20S proteasome.
Details: not given
In the case of `CCCC[Te](Br)(Br)c1ccccc1[C@H](C)OC`, the inhibition entry was “inactive”.

Regarding `CCCC[Te](Br)(Br)c1ccccc1COC`, the inhibition result was “inactive”.

Take `CCCC[Se]1(Cl)c2ccccc2[C@@H](C)[O+]1C` (stereo partly drawn): the inhibition result is “inactive”.

Turning to `CCCC[Se]1(Cl)c2ccccc2[C@H](C)[O+]1C` (stereo partly drawn), the inhibition result was “inactive”.

Take `CCCC[Se]1(Br)c2ccccc2[C@H](C)[O+]1C` (stereo partly drawn): the inhibition entry is “inactive”.

With `CCCC[Te](Br)(Br)c1ccccc1[C@@H](C)OC`, the inhibition entry was “inactive”.

Turning to `CCCC[Te](Cl)(Cl)c1ccccc1[C@H](C)OC`, the inhibition entry was “inactive”.

For the molecule `CCCC[Se]1(Cl)c2ccccc2C[O+]1C.[Cl-]` (stereo not drawn), the inhibition result is “inactive”.

On to `CCCC[Se]1(Br)c2ccccc2[C@@H](C)[O+]1C` (stereo partly drawn), for which the inhibition entry is “inactive”.

As to `CCCC[Te](Cl)(Cl)c1ccccc1[C@@H](C)OC`, the inhibition result was “inactive”.

Turning to `CCCC[Se]1(Br)c2ccccc2C[O+]1C.[Br-]` (stereo not drawn), the inhibition result was “inactive”.

Turning to `CCCC[Te](Cl)(Cl)c1ccccc1COC`, the inhibition result is “inactive”.

Tested on in another series: not listed separately
Briefly: Cytotoxicity against mouse NIH/3T3 cells assessed as cell viability at 1 to 40 umol/L after 2 hrs by MTT assay. Type of series: cell-based, NIH3T3. The conditions noted are these: read-out: Activity.
Take `CCCC[Te](Br)(Br)c1ccccc1COC`: the viability at 2 h stood at 60%.

Tested on in a further series: not listed separately
In words: (§1) Cytotoxicity against mouse NIH/3T3 cells assessed as cell viability at 80 umol/L after 2 hrs by MTT assay. The conditions noted are these: NIH/3T3 cells, read-out: Activity. It counts as cell-based, NIH3T3.
For the molecule `CCCC[Te](Br)(Br)c1ccccc1COC`, the viability at 2 h, 80 µM is > 50%.

The test system of the next series is NIH3T3. The description is as §1. It counts as cell-based. As to conditions: nih3t3, 2 h, 80 µM.
On to `CCCC[Se]1(Cl)c2ccccc2C[O+]1C.[Cl-]` (stereo not drawn), for which the Activity result was “Non-toxic”.

Tested on in a further series: not listed separately
In words: Inhibition of horse erythrocytes trypsin like activity of beta2-20S proteasome using z-ARR-AMC as substrate measured for 60 mins by fluorescence assay. Also noted: species or system Equus caballus.
Details: not given
`CCCC[Te](Br)(Br)c1ccccc1[C@H](C)OC` gave a 50% inhibitory concentration (IC50) of 15 µM.

As for `CCCC[Te](Br)(Br)c1ccccc1COC`, the 50% inhibitory concentration (IC50) came out at 4 µM.

In the case of `CCCC[Se]1(Cl)c2ccccc2[C@@H](C)[O+]1C` (stereo partly drawn), the IC50 was determined as 34 µM.

Molecule `CCCC[Se]1(Cl)c2ccccc2[C@H](C)[O+]1C` (stereo partly drawn) yielded a concentration for half-maximal inhibition (IC50) of 32 µM.

Molecule `CCCC[Se]1(Br)c2ccccc2[C@H](C)[O+]1C` (stereo partly drawn) had a concentration for half-maximal inhibition (IC50) of 19 µM.

As for `CCCC[Te](Br)(Br)c1ccccc1[C@@H](C)OC`, the half-inhibitory concentration (IC50) worked out at 8 µM.

In turn, `CCCC[Te](Cl)(Cl)c1ccccc1[C@H](C)OC` showed a half-inhibitory concentration (IC50) of 5.5 µM.

In turn, `CCCC[Se]1(Cl)c2ccccc2C[O+]1C.[Cl-]` (stereo not drawn) came in with a concentration for half-maximal inhibition (IC50) of 35 µM.

For `CCCC[Se]1(Br)c2ccccc2[C@@H](C)[O+]1C` (stereo partly drawn), half-maximal inhibition (IC50) required 26 µM.

`CCCC[Te](Cl)(Cl)c1ccccc1[C@@H](C)OC` yielded an IC50 of 4 µM.

On to `CCCC[Se]1(Br)c2ccccc2C[O+]1C.[Br-]` (stereo not drawn), for which inhibition was half-maximal at 16 µM (IC50).

As to `CCCC[Te](Cl)(Cl)c1ccccc1COC`, the half-maximal inhibitory concentration (IC50) turned out to be 3.5 µM.

The species entered for the next series is Equus caballus. In words: Inhibition of horse erythrocytes trypsin like activity of beta2-20S proteasome using z-ARR-AMC as substrate at 100 uM measured for 60 mins by fluorescence assay.
Details: not given
As for `CCCC[Se]c1ccccc1[C@@H](C)OC`, the inhibition entry was “inactive”.

Turning to `CCCC[Se]c1ccccc1COC`, the inhibition entry is “inactive”.

`CCCC[Te](Br)(Br)c1ccccc1[C@H](C)OC`: the inhibition was > 50%.

For the molecule `CCCC[Te]c1ccccc1[C@@H](C)OC`, the inhibition entry is “inactive”.

The molecule `CCCC[Te](Br)(Br)c1ccccc1COC` had an inhibition of 90%.

Regarding `CCCC[Se]1(Cl)c2ccccc2[C@@H](C)[O+]1C` (stereo partly drawn), the inhibition was > 50%.

On to `CCCC[Se]1(Cl)c2ccccc2[C@H](C)[O+]1C` (stereo partly drawn), for which the inhibition is > 50%.

On to `CCCC[Se]c1ccccc1[C@H](C)OC`, for which the inhibition entry was “inactive”.

Turning to `CCCC[Te]c1ccccc1COC`, the inhibition entry was “inactive”.

As to `CCCC[Se]1(Br)c2ccccc2[C@H](C)[O+]1C` (stereo partly drawn), the inhibition is > 50%.

`CCCC[Te](Br)(Br)c1ccccc1[C@@H](C)OC`: the inhibition is 90%.

With `CCCC[Te](Cl)(Cl)c1ccccc1[C@H](C)OC`, the inhibition was > 50%.

With `CCCC[Te]c1ccccc1[C@H](C)OC`, the inhibition entry was “inactive”.

The molecule `CCCC[Se]1(Cl)c2ccccc2C[O+]1C.[Cl-]` (stereo not drawn) came in with an inhibition of 90%.

Consider `CCCC[Se]1(Br)c2ccccc2[C@@H](C)[O+]1C` (stereo partly drawn), for which the inhibition was > 50%.

Take `CCCC[Te](Cl)(Cl)c1ccccc1[C@@H](C)OC`: the inhibition is > 50%.

As to `CCCC[Se]1(Br)c2ccccc2C[O+]1C.[Br-]` (stereo not drawn), the inhibition came out at 90%.

Turning to `CCCC[Te](Cl)(Cl)c1ccccc1COC`, the inhibition came to 90%.

Tested on in the next series: not listed separately
Briefly: Cytotoxicity against mouse NIH/3T3 cells assessed as cell viability at 10 umol/L after 2 hrs by MTT assay. Type of series: cell-based, NIH3T3. The conditions noted are these: read-out: Activity.
For the molecule `CCCC[Se]1(Cl)c2ccccc2C[O+]1C.[Cl-]` (stereo not drawn), the viability at 2 h, 10 µM came to 50%.

A further series concerns NIH3T3. Briefly: Cytotoxicity against mouse NIH/3T3 cells assessed as cell viability after 2 hrs by MTT assay. Type of series: cell-based. The conditions noted are these: nih3t3, 2 h.
`CCCC[Se]1(Cl)c2ccccc2C[O+]1C.[Cl-]` (stereo not drawn): the Activity result was “Dose-dependent effect”.
